The record followed here is US12577272B2, “CD73 inhibitors” (ORIC Pharmaceuticals, Inc., priority 2019, dated 2026).

The target in the assay is T1, CD73 (Homo sapiens, UniProt P21589).
T1 sequence (P21589 27-549): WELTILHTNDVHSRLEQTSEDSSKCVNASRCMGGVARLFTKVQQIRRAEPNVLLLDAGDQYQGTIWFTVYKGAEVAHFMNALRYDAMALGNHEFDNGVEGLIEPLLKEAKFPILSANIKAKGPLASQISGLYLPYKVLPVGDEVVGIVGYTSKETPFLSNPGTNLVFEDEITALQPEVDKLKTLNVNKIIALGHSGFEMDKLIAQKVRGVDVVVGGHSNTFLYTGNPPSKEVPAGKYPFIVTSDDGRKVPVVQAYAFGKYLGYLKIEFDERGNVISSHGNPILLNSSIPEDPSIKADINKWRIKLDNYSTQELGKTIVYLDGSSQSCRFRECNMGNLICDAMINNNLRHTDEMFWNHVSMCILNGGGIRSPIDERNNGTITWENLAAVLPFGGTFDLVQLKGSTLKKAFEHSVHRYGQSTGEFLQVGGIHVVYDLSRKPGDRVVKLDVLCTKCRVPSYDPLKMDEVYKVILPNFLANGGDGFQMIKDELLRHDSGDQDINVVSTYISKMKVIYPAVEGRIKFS
The assay can be described thus: Biochemical Assay: inhibition of CD73 activity (AMP hydrolysis, Malachite Green readout). The settings on record: CD73 0.3208 nM, AMP 15 μM, 25 mM Tris-HCl pH 7.4, 10 min reaction at RT; read-out: CD73_Biochem. How it is done:
Example A1: Biochemical Assay
Assay Reaction Conditions
• Assay Volume: 70 μl • Reaction Volume: 50 μl • CD73: 0.3208 nM • AMP: 15 μM • Assay Buffer: 2 5 mM Tris-HCL, pH 7.4, 0.01% Brij-35, 0.01% BSA, 5 mM MgCl2 Assay Procedure:
Made dose titration of testing compounds in assay buffer, 10 points ½ log titrations in duplicates starting at 100 μM.
Added 25 μl of CD73 to each well for a final concentration of 320 pM.
Incubated at RT for 15 min.
Added 25 μl of AMP to each well for a final concentration of 15 μM.
Incubated at RT for 10 min.
Added 10 μl of Malachite Green Reagent A, incubate at RT for 10 min.
Added 10 μl of Malachite Green Reagent B, incubate at RT for 45 min.
Read the Absorbance on Envision plate reader using excitation filter: Cy5 […].
The ability of the compounds disclosed herein to inhibit CD73 activity was quantified and the respective IC50 values were determined. Table 2 provides the biochemical IC50 values of compounds disclosed herein.

Some results are limits rather than exact numbers.

In the case of `COCCOCC(COCc1nnn[nH]1)(OC[C@H]1O[C@@H](n2ncc3c(NC4CCCC4)nc(Cl)nc32)[C@H](O)[C@@H]1O)P(=O)(O)O` (single isomer, unassigned) [Example 2], the IC50 was at most 10 nM.
